According to patent publication US20230107642A1 (Erasca, Inc., priority 2020, published 2023):

target: T1, Cys12 of the KRAS 4B G12C protein (Homo sapiens, UniProt P01116, G12C); test: In vitro covalent adduct formation (CAF) assay, LC-MS intact mass; type: binding; conditions: 10 uM compound, 60 min
T1 construct: This protein contained 188 amino acids in total, including an N-terminal 6-Histidine tag; made in house; host or cells: E. coli BL21
In short: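 Percent covalent modification from intact-mass LC-MS, by relative free versus adducted protein (adducts within 1 Da of expected mass). Reaction: 10 μM compound with 5 μM E. coli-expressed, GDP-exchanged KRAS 4B G12C in TBS pH 7.4, 4% DMSO, 1 h at 22° C.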

% CAF 10 uM @ 60 min [%]	Structure (SMILES)
96.2	C=CC(=O)N1C[C@H](C)N(c2nc(=O)n3c4c(c(-c5ccc(F)cc5F)c(C(F)(F)F)cc24)SC[C@@H]3CN2C[C@@H]3C[C@H]2CO3)C[C@H]1C (atropisomer, axis not shown) [Example 1322, (3S,10S)-3-(((1S,4S)-2-oxa-5-azabicyclo[2.2.1]heptan-5-yl)methyl)-7-((2S,5R)-4-acryloyl-2,5-dimethylpiperazin-1-yl)-10-(2,4-difluorophenyl)-9-(trifluoromethyl)-2,3-dihydro-5H-[1,4]thiazino[2,3,4-ij]quinazolin-5-one]
83.9	C=CC(=O)N1[C@H](C)CN(c2nc(=O)n3c4c(c(-c5cc(Cl)c(F)cc5F)c(C(F)(F)F)cc24)SC[C@@H]3CN(C)C)C[C@@H]1C (atropisomer, axis not shown) [Example 1376, (3S,10S)-7-((3S,5R)-4-acryloyl-3,5-dimethylpiperazin-1-yl)-10-(5-chloro-2,4-difluorophenyl)-3-((dimethylamino)methyl)-9-(trifluoromethyl)-2,3-dihydro-5H-[1,4]thiazino[2,3,4-ij]quinazolin-5-one]
88.5	C=CC(=O)N1[C@H](C)CN(c2nc(=O)n3c4c(c(-c5c(F)cc(F)cc5F)c(C(F)(F)F)cc24)SC[C@@H]3COC)C[C@@H]1C [Example 1374, (S)-7-((3S,5R)-4-acryloyl-3,5-dimethylpiperazin-1-yl)-3-(methoxymethyl)-9-(trifluoromethyl)-10-(2,4,6-trifluorophenyl)-2,3-dihydro-5H-[1,4]thiazino[2,3,4-ij]quinazolin-5-one]
97.2	C=CC(=O)N1CCN(c2nc(=O)n3c4c(c(-c5ccc(F)c6cnn(C)c56)c(C(F)(F)F)cc24)SC[C@@H]3COC)CC1 (atropisomer, axis not shown) [Example 1392a, (3S,10S)-7-(4-acryloylpiperazin-1-yl)-10-(4-fluoro-1-methyl-1H-indazol-7-yl)-3-(methoxymethyl)-9-(trifluoromethyl)-2,3-dihydro-5H-[1,4]thiazino[2,3,4-ij]quinazolin-5-one]
19.1	C=CC(=O)N1C[C@H](C)N(c2nc(=O)n3c4c(c(-c5cccc6cnn(C)c56)c(C(F)(F)F)cc24)SC[C@@H]3CN2CCN(CC)CC2)C[C@H]1C (atropisomer, axis not shown) [Example 1381, (3S,10R)-7-((2S,5R)-4-acryloyl-2,5-dimethylpiperazin-1-yl)-3-((4-ethylpiperazin-1-yl)methyl)-10-(1-methyl-1H-indazol-7-yl)-9-(trifluoromethyl)-2,3-dihydro-5H-[1,4]thiazino[2,3,4-ij]quinazolin-5-one]
89.7	C=CC(=O)N1[C@H](C)CN(c2nc(=O)n3c4c(c(-c5ccc(F)cc5F)c(C(F)(F)F)cc24)SC[C@@H]3CN2CCN(C3CC3)CC2)C[C@@H]1C (atropisomer, axis not shown) [Example 1347, (3S,10S)-7-((3S,5R)-4-acryloyl-3,5-dimethylpiperazin-1-yl)-3-((4-cyclopropylpiperazin-1-yl)methyl)-10-(2,4-difluorophenyl)-9-(trifluoromethyl)-2,3-dihydro-5H-[1,4]thiazino[2,3,4-ij]quinazolin-5-one]
78.9	C=CC(=O)N1[C@H](C)CN(c2nc(=O)n3c4c(c(-c5cc(Cl)c(F)cc5F)c(C(F)(F)F)cc24)SC[C@@H]3CN2C[C@@H]3C[C@H]2CO3)C[C@@H]1C [Example 1302, (3S)-3-(((1S,4S)-2-oxa-5-azabicyclo[2.2.1]heptan-5-yl)methyl)-7-((3S,5R)-4-acryloyl-3,5-dimethylpiperazin-1-yl)-10-(5-chloro-2,4-difluorophenyl)-9-(trifluoromethyl)-2,3-dihydro-5H-[1,4]thiazino[2,3,4-ij]quinazolin-5-one]
96.7	C=CC(=O)N1CCN(c2nc(=O)n3c4c(c(-c5c(F)cc(F)cc5F)c(C(F)(F)F)cc24)SC[C@@H]3COC)CC1 [Example 1379, (S)-7-(4-acryloylpiperazin-1-yl)-3-(methoxymethyl)-9-(trifluoromethyl)-10-(2,4,6-trifluorophenyl)-2,3-dihydro-5H-[1,4]thiazino[2,3,4-ij]quinazolin-5-one]
94.1	C=CC(=O)N1[C@H](C)CN(c2nc(=O)n3c4c(c(-c5cc(Cl)c(F)cc5F)c(C(F)(F)F)cc24)SC[C@@H](N2CCCC2)C3)C[C@@H]1C [Example 1422, (3S)-8-((3S,5R)-4-acryloyl-3,5-dimethylpiperazin-1-yl)-11-(5-chloro-2,4-difluorophenyl)-3-(pyrrolidin-1-yl)-10-(trifluoromethyl)-3,4-dihydro-2H,6H-[1,4]thiazepino[2,3,4-ij]quinazolin-6-one]

Structure (SMILES)	% CAF 10 uM @ 60 min [%]
C=CC(=O)N1C2CCC1CN(c1nc(=O)n3c4c(c(-c5cc(Cl)c(F)cc5F)c(C(F)(F)F)cc14)SC[C@@H]3COC)C2 [Example 1395, (3S,10S)-7-((1R,5S)-8-acryloyl-3,8-diazabicyclo[3.2.1]octan-3-yl)-10-(5-chloro-2,4-difluorophenyl)-3-(methoxymethyl)-9-(trifluoromethyl)-2,3-dihydro-5H-[1,4]thiazino[2,3,4-ij]quinazolin-5-one]	17.3

same assay, conditions: 10 uM compound, 60 min incubation

% CAF 10 uM @ 60 min [%]	Structure (SMILES)
92.1	C=CC(=O)N1[C@H](C)CN(c2nc(=O)n3c4c(c(-c5cc(Cl)c(F)cc5F)c(C(F)(F)F)cc24)SCC2(COC2)C3)C[C@@H]1C (atropisomer, axis not shown) [Example 1125, (S)-8′-((3S,5R)-4-acryloyl-3,5-dimethylpiperazin-1-yl)-11′-(5-chloro-2,4-difluorophenyl)-10′-(trifluoromethyl)-2′H,4′H,6′H-spiro[oxetane-3,3′-[1,4]thiazepino [2,3,4-ij]quinazolin]-6′-one]
54.1	C=CC(=O)N1[C@H](C)CN(c2nc(=O)n3c4c(c(-c5cccc6cnn(C)c56)c(C(F)(F)F)cc24)SCC2(COC2)C3)C[C@@H]1C (atropisomer, axis not shown) [Example 1133, (R)-8′-((3S,5R)-4-acryloyl-3,5-dimethylpiperazin-1-yl)-11′-(1-methyl-1H-indazol-7-yl)-10′-(trifluoromethyl)-2′H,4′H,6′H-spiro[oxetane-3,3′-[1,4]thiazepino [2,3,4-ij]quinazolin]-6′-one]

same assay, conditions: 10 μM compound, after 1 hour

CAF (% after 1 hour) [%]	Structure (SMILES)
95	C=CC(=O)N1[C@H](C)CN(c2nc(=O)n3c4c(c(-c5cc(Br)c(F)cc5F)c(C(F)(F)F)cc24)SC[C@@H](OC)C3)C[C@@H]1C [Example 1239, (3S)-8-((3S,5R)-4-acryloyl-3,5-dimethylpiperazin-1-yl)-11-(5-bromo-2,4-difluorophenyl)-3-methoxy-10-(trifluoromethyl)-3,4-dihydro-2H,6H-[1,4]thiazepino[2,3,4-ij]quinazolin-6-one]
95	C=CC(=O)N1[C@H](C)CN(c2nc(=O)n3c4c(c(-c5ccc(F)cc5)c(C(F)(F)F)cc24)SC[C@@H](OCF)C3)C[C@@H]1C [Example 1217, (S)-8-((3S,5R)-4-acryloyl-3,5-dimethylpiperazin-1-yl)-3-(fluoromethoxy)-11-(4-fluorophenyl)-10-(trifluoromethyl)-3,4-dihydro-2H,6H-[1,4]thiazepino[2,3,4-ij]quinazolin-6-one]
59	C=CC(=O)N1CCN(c2nc(=O)n3c4c(c(-c5cc(Cl)c(F)cc5F)c(C(F)(F)F)cc24)SC[C@@H](OC)C3)[C@@H]2COC[C@@H]21 [Example 1213, (3S)-8-((4aR,7aS)-4-acryloylhexahydrofuro[3,4-b]pyrazin-1(2H)-yl)-11-(5-chloro-2,4-difluorophenyl)-3-methoxy-10-(trifluoromethyl)-3,4-dihydro-2H,6H-[1,4]thiazepino[2,3,4-ij]quinazolin-6-one]
97	C=CC(=O)N1CCN(c2nc(=O)n3c4c(c(-c5cc(Cl)c(F)cc5F)c(C(F)(F)F)cc24)SC[C@@H](OC)C3)[C@@H]2CS(=O)(=O)C[C@@H]21 [Example 1211, (3S)-8-((4aR,7aS)-4-acryloyl-6,6-dioxidohexahydrothieno[3,4-b]pyrazin-1(2H)-yl)-11-(5-chloro-2,4-difluorophenyl)-3-methoxy-10-(trifluoromethyl)-3,4-dihydro-2H,6H-[1,4]thiazepino[2,3,4-ij]quinazolin-6-one]
95	C=CC(=O)N1[C@H](C)CN(c2nc(=O)n3c4c(c(-c5ccc(F)cc5)c(C(F)(F)F)cc24)SC[C@@H](OCC(N)=O)C3)C[C@@H]1C [Example 1233, 2-(((S)-8-((3S,5R)-4-acryloyl-3,5-dimethylpiperazin-1-yl)-11-(4-fluorophenyl)-6-oxo-10-(trifluoromethyl)-3,4-dihydro-2H,6H-[1,4]thiazepino[2,3,4-ij]quinazolin-3-yl)oxy)acetamide]
97	C=CC(=O)N1C[C@H](C)N(c2nc(=O)n3c4c(c(-c5ccc(F)cc5)c(C(F)(F)F)cc24)SC[C@@H](OC)C3)C[C@H]1C [Example 1202, (S)-8-((2S,5R)-4-acryloyl-2,5-dimethylpiperazin-1-yl)-11-(4-fluorophenyl)-3-methoxy-10-(trifluoromethyl)-3,4-dihydro-2H,6H-[1,4]thiazepino[2,3,4-ij]quinazolin-6-one]

same assay, conditions: after 60 min

CAF (% binding after 60 min) [%]	Structure (SMILES)
97	C=CC(=O)N1CCN(c2nc(=O)n3c4c(c(-c5ccc(F)c(Cl)c5)c(C(F)(F)F)cc24)SC[C@@H](OCCOC)C3)CC1 [Example 1021, (S)-8-(4-acryloylpiperazin-1-yl)-11-(3-chloro-4-fluorophenyl)-3-(2-methoxyethoxy)-10-(trifluoromethyl)-3,4-dihydro-2H,6H-[1,4]thiazepino[2,3,4-ij]quinazolin-6-one]
97	C=CC(=O)N1CCN(c2nc(=O)n3c4c(c(-c5ccc(F)c(Cl)c5)c(C(F)(F)F)cc24)SC[C@@H](OCOC)C3)CC1 [Example 1007, (S)-8-(4-acryloylpiperazin-1-yl)-11-(3-chloro-4-fluorophenyl)-3-(methoxymethoxy)-10-(trifluoromethyl)-3,4-dihydro-2H,6H-[1,4]thiazepino[2,3,4-ij]quinazolin-6-one]
